Here are results for 18 compounds from US20210115018A1, “PIPERIDINE COMPOUNDS AS COVALENT MENIN INHIBITORS” (THE REGENTS OF THE UNIVERSITY OF MICHIGAN, priority 2018, published 2021).

One assay concerns the target T1, menin protein (Homo sapiens, UniProt O00255).
T1 sequence (O00255 1-610): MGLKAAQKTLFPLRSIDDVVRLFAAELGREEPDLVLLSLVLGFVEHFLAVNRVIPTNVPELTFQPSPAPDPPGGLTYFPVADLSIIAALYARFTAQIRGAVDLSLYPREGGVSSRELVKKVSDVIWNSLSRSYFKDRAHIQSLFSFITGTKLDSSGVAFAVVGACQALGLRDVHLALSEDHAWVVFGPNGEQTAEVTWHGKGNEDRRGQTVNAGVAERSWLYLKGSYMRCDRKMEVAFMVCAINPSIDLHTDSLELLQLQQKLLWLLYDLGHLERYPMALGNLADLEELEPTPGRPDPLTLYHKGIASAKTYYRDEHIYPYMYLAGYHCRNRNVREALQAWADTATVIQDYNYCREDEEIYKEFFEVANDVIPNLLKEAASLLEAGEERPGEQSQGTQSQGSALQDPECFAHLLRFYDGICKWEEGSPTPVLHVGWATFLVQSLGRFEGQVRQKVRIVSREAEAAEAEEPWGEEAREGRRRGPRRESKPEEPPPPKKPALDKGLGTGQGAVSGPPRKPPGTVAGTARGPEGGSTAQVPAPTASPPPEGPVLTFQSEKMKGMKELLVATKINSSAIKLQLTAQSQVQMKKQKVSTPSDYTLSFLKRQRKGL
In words: Fluorescence polarization (FP) competitive binding assay, menin binding affinity. The settings on record: FP competition with FAM-MM2 probe 2 nM, menin 4 nM, 30 minutes room temperature. As to the method:
A fluorescence polarization (FP) competitive binding assay was used to determine the binding affinities of representative menin inhibitors. A FAM labeled fluorescent probe was designed and synthesized based on a MLL1 peptide (FAM-MM2). Equilibrium dissociation constant (Kd) value of FAM-MM2 to menin protein was determined from protein saturation experiments by monitoring the total fluorescence polarization of mixtures composed with the fluorescent probe at a fixed concentration and the protein with increasing concentrations up to full saturation. Serial dilutions of the protein were mixed with FAM-MM2 to a final volume of 200 μl in the assay buffer (PBS with 0.02% Bovine γ-Globulin and 4% DMSO. 0.01% Triton X-100 was added right before assays). Final FAM-MM2 concentration was 2 nM. Plates were incubated at room temperature for 30 minutes with gentle shaking to assure equilibrium. FP values in millipolarization units (mP) were measured using the Infinite M-1000 plate reader (Tecan U.S., Research Triangle Park, N.C.) in Microfluor 1 96-well, black, v-bottom plates (Thermo Scientific, Waltham, Mass.) at an excitation wavelength of 485 nm and an emission wavelength of 530 nm.
The IC50 of representative Compounds of the Disclosure, see Table 3, were determined in a competitive binding experiment. Mixtures of 5 μl of the tested compounds in DMSO and 195 μl of preincubated protein/probe complex solution in the assay buffer were added into assay plates which were incubated at room temperature for 30 minutes with gentle shaking. Final concentration of the menin protein was 4 nM, and final probe concentration is 2 nM. Negative controls containing protein/probe complex only (equivalent to 0% inhibition), and positive controls containing only free probes (equivalent to 100% inhibition), were included in each assay plate. FP values were measured as described above. IC50 values were determined by nonlinear regression fitting of the competition curves.
Consider `C=C(CN1CCOCC1)C(=O)N1CC(S(=O)(=O)c2ccc(N3CC(CN4CCC([C@@](CN5CCC5)(c5cccc(F)c5)[C@H]5CCC[C@@H]5NC(=O)OC)CC4)C3)cc2)C1` [Cpd. No. 9, methyl ((1S,2R)-2-((S)-2-(azetidin-1-yl)-1-(3-fluorophenyl)-1-(1-((1-(4-((1-(2-(morpholinomethyl)acryloyl)azetidin-3-yl)sulfonyl)phenyl)azetidin-3-yl)methyl)piperidin-4-yl)ethyl)cyclopentyl)carbamate], for which the IC50 stood at 2 nM. Still for that read-out and setting: in the case of `C=CC(=O)N1CC(S(=O)(=O)c2ccc(N3CC(F)(CN4CCC([C@@](CN5CCC5)(c5cccc(F)c5)[C@H]5CCC[C@@H]5NC(=O)OC)CC4)C3)cc2)C1` [Cpd. No. 16, methyl ((1S,2R)-2-((S)-1-(1-((1-(4-((1-acryloylazetidin-3-yl)sulfonyl)phenyl)-3-fluoroazetidin-3-yl)methyl)piperidin-4-yl)-2-(azetidin-1-yl)-1-(3-fluorophenyl)ethyl)cyclopentyl)carbamate] it was 3 nM; in that of `C=C(CN1CCC(O)CC1)C(=O)N1CC(S(=O)(=O)c2ccc(N3CC(CN4CCC([C@@](CN5CCC5)(c5cccc(F)c5)[C@H]5CCC[C@@H]5NC(=O)OC)CC4)C3)cc2)C1` [Cpd. No. 23, methyl ((1S,2R)-2-((S)-2-(azetidin-1-yl)-1-(3-fluorophenyl)-1-(1-((1-(4-((1-(2-((4-hydroxypiperidin-1-yl)methyl)acryloyl)azetidin-3-yl)sulfonyl)phenyl)azetidin-3-yl)methyl)piperidin-4-yl)ethyl)cyclopentyl)carbamate], 2 nM. Same read-out and setting: for `C=C(CN1CCOCC1)C(=O)N1CC(S(=O)(=O)c2ccc(N3CC(CN4CCC([C@](CN5CCC5)(c5cccc(F)c5)[C@H]5CCC[C@@H]5NC(=O)OC)CC4)C3)cc2)C1` [Cpd. No. 27, methyl ((1S,2R)-2-((R)-2-(azetidin-1-yl)-1-(3-fluorophenyl)-1-(1-((1-(4-((1-(2-(morpholinomethyl)acryloyl)azetidin-3-yl)sulfonyl)phenyl)azetidin-3-yl)methyl)piperidin-4-yl)ethyl)cyclopentyl)carbamate] the value was 4 nM; for `C=C(CN1CCOCC1)C(=O)N1CC(S(=O)(=O)c2ccc(N3CC(CN4CCC([C@@](C#N)(c5cccc(F)c5)[C@H]5CCC[C@@H]5NC(=O)OC)CC4)C3)cc2)C1` [Cpd. No. 28, methyl ((1S,2R)-2-((S)-cyano(3-fluorophenyl)(1-((1-(4-((1-(2-(morpholinomethyl)acryloyl)azetidin-3-yl)sulfonyl)phenyl)azetidin-3-yl)methyl)piperidin-4-yl)methyl)cyclopentyl)carbamate], 2 nM; for `C=C(CN1CCCCC1)C(=O)N1CC(S(=O)(=O)c2ccc(N3CC(CN4CCC([C@@](C#N)(c5cccc(F)c5)[C@H]5CCC[C@@H]5NC(=O)OC)CC4)C3)cc2)C1` [Cpd. No. 29, methyl ((1S,2R)-2-((S)-cyano(3-fluorophenyl)(1-((1-(4-((1-(2-(piperidin-1-ylmethyl)acryloyl)azetidin-3-yl)sulfonyl)phenyl)azetidin-3-yl)methyl)piperidin-4-yl)methyl)cyclopentyl)carbamate], 2 nM.

In the case of `C=C(CN1CCOCC1)C(=O)N1CC(S(=O)(=O)c2cccc(N3CC(CN4CCC([C@@](CN5CCC5)(c5cccc(F)c5)[C@H]5CCC[C@@H]5NC(=O)OC)CC4)C3)c2)C1` [Cpd. No. 30, methyl ((1S,2R)-2-((S)-2-(azetidin-1-yl)-1-(3-fluorophenyl)-1-(1-((1-(3-((1-(2-(morpholinomethyl)acroyloyl)azetidin-3-yl)sulfonyl)phenyl)azetidin-3-yl)methyl)piperidin-4-yl)ethyl)cyclopentyl)carbamate], the IC50 was determined as 5 nM. With `COC(=O)N[C@H]1CCC[C@@H]1[C@@](CN1CCC1)(c1cccc(F)c1)C1CCN(CC2CN(c3ccc(S(=O)(=O)C4CN(C(=O)/C=C/CN5CCOCC5)C4)cc3)C2)CC1` [Cpd. No. 31, methyl ((1S,2R)-2-((R)-2-(azetidin-1-yl)-1-(3-fluorophenyl)-1-(1-((1-(4-((1-((E)-4-morpholinobut-2-enoyl)azetidin-3-yl)sulfonyl)phenyl)azetidin-3-yl)methyl)piperidin-4-yl)ethyl)cyclopentyl)carbamate], the IC50 came to 88 nM. With `C=CC(=O)Nc1cccc(S(=O)(=O)c2ccc(N3CC(CN4CCC([C@@](CN5CCC5)(c5cccc(F)c5)[C@H]5CCC[C@@H]5NC(=O)OC)CC4)C3)cc2)c1` [Cpd. No. 32, methyl ((1S,2R)-2-((S)-1-(1-((1-(4-((3-acrylamidophenyl)sulfonyl)phenyl)azetidin-3-yl)methyl)piperidin-4-yl)-2-(azetidin-1-yl)-1-(3-fluorophenyl)ethyl)cyclopentyl)carbamate], the IC50 worked out at 2 nM. Still for that read-out and setting: for `C=CC(=O)N1CCCC[C@H](S(=O)(=O)c2ccc(N3CC(CN4CCC([C@@](CN5CCC5)(c5cccc(F)c5)[C@H]5CCC[C@@H]5NC(=O)OC)CC4)(OC)C3)cc2)C1` [compound 234] the value was 4 nM; for `C=CC(=O)N1CCCC[C@H](S(=O)(=O)c2ccc(N3CC(CN4CCC([C@@](CN5CCC5)(c5cccc(F)c5)[C@H]5CCC[C@@H]5NC(=O)OC)CC4)(OC)C3)c(F)c2)C1` [compound 235], 4 nM; for `C=CC(=O)N1CCCC[C@H](S(=O)(=O)c2ccc(N3CC(F)(CN4CCC([C@@](CN5CCC5)(c5cccc(F)c5)[C@H]5CCC[C@@H]5NC(=O)OC)CC4)C3)cc2)C1` [compound 236], 4 nM. Same read-out and setting: in the case of `C=CC(=O)N1CCCC[C@H](S(=O)(=O)c2ccc(N3CC(F)(CN4CCC([C@@](CN5CCC5)(c5cccc(F)c5)[C@H]5CCC[C@@H]5NC(=O)OC)CC4)C3)c(F)c2)C1` [compound 237] it was 4 nM; in that of `C=CC(=O)N1CCN(C(C)=O)[C@H](CS(=O)(=O)c2ccc(N3CC(CN4CCC([C@@](CN5CCC5)(c5cccc(F)c5)[C@H]5CCC[C@@H]5NC(=O)OC)CC4)(OC)C3)cc2)C1` [compound 238], 7 nM. `C=CC(=O)N1CCN(C(C)=O)[C@@H](CS(=O)(=O)c2ccc(N3CC(CN4CCC([C@@](CN5CCC5)(c5cccc(F)c5)[C@H]5CCC[C@@H]5NC(=O)OC)CC4)(OC)C3)cc2)C1` [compound 239]: the IC50 was determined as 6 nM. On to `C=CC(=O)N1CC2CC1CN2S(=O)(=O)c1ccc(N2CC(CN3CCC([C@@](CN4CCC4)(c4cccc(F)c4)[C@H]4CCC[C@@H]4NC(=O)OC)CC3)(OC)C2)cc1` (stereo partly shown) [compound 240], for which the IC50 came out at 4 nM. As for `C=CC(=O)N1CCN(C(C)=O)CC(S(=O)(=O)c2ccc(N3CC(CN4CCC([C@@](CN5CCC5)(c5cccc(F)c5)[C@H]5CCC[C@@H]5NC(=O)OC)CC4)(OC)C3)cc2)C1` (stereo partly shown) [compound 241], the IC50 worked out at 10 nM. As to `C=CC(=O)N1CCN(C(=O)OC)CC(S(=O)(=O)c2ccc(N3CC(CN4CCC([C@@](CN5CCC5)(c5cccc(F)c5)[C@H]5CCC[C@@H]5NC(=O)OC)CC4)(OC)C3)cc2)C1` (stereo partly shown) [compound 242], the IC50 was 10 nM.

The subject of the next assay is MV4-11. In words: 7-day proliferation assay (WST-8), cell growth inhibition. It is filed as cell-based. The settings on record: Homo sapiens, MV4-11, 168 h, MV4-11 cells, 7 days. As to the method: The effect of representative Compounds of the Disclosure on cell viability was determined in a 7-day proliferation assay. Cells were maintained in the appropriate culture medium with 10% FBS at 37° C. and an atmosphere of 5% CO2.
Cells were seeded in 96-well flat bottom (Corning COSTAR, Corning, NY, cat#3595) at a density of 2,000-3,000 cells/well in 100 μl of culture medium. Compounds were serially diluted in the appropriate medium, and […] the diluted compounds were added to the appropriate wells of the cell plate. After the addition of compounds, the cells were incubated at 37° C. in an atmosphere of 5% CO2 for 7 days. Cell viability was determined using the WST (2-(2-methoxy-4-nitrophenyl)-3-(4-nitrophenyl)-5-(2,4-disulfophenyl)-2H-tetrazolium, monosodium salt) Cell Counting-8 Kit (Dojindo Molecular Technologies, Inc., Rockville, Md.) according to the manufacturers' instructions.
WST-8 reagent was added to each well at a final concentration of 10% (v/v), and then the plates were incubated at 37° C. for 1-2 hours for color development. The absorbance was measured at 450 nm using a SPECTRAmax PLUS plate reader (Molecular Devices, Sunnyvale, Calif.). The readings were normalized to the DMSO-treated cells and the half maximal inhibitory concentration (IC50) was calculated by nonlinear regression (four parameters sigmoid fitted with variable slope, least squares fit, and no constraint) analysis using the GraphPad Prism 5 software (GraphPad Software, La Jolla, Calif.).
Regarding `C=C(CN1CCOCC1)C(=O)N1CC(S(=O)(=O)c2ccc(N3CC(CN4CCC([C@@](CN5CCC5)(c5cccc(F)c5)[C@H]5CCC[C@@H]5NC(=O)OC)CC4)C3)cc2)C1` [Cpd. No. 9, methyl ((1S,2R)-2-((S)-2-(azetidin-1-yl)-1-(3-fluorophenyl)-1-(1-((1-(4-((1-(2-(morpholinomethyl)acryloyl)azetidin-3-yl)sulfonyl)phenyl)azetidin-3-yl)methyl)piperidin-4-yl)ethyl)cyclopentyl)carbamate], the IC50 was less than 10 nM.
